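1) Cells in 96-well plates. 2) Compound, 48 h, 5 concentrations. 3) Linear interpolation between surrounding doses. 4) Unreached endpoint = highest concentration. Definition used: TGI = concentration required for complete inhibition of growth.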
Columns and labels:
Test in all cases: NCI tumour cell line growth inhibition, 48 h
HT29 colon = test system: HT29 colon
BT-549 breast = test system: BT-549 breast
UO-31 renal = test system: UO-31 renal
OVCAR-8 ovarian = test system: OVCAR-8 ovarian
A549 NSCLC = test system: A549 NSCLC
SN12C renal = test system: SN12C renal
EKVX NSCLC = test system: EKVX NSCLC
SK-MEL-2 melanoma = test system: SK-MEL-2 melanoma
786-0 renal = test system: 786-0 renal
NCI/ADR-RES ovarian = test system: NCI/ADR-RES ovarian
U251 CNS = test system: U251 CNS
HL-60(TB) leukemia = test system: HL-60(TB) leukemia
MALME-3M melanoma = test system: MALME-3M melanoma
SK-OV-3 ovarian = test system: SK-OV-3 ovarian
HCT-15 colon = test system: HCT-15 colon
KM12 colon = test system: KM12 colon
SNB-19 CNS = test system: SNB-19 CNS
MCF7 breast = test system: MCF7 breast
DU-145 prostate = test system: DU-145 prostate
T-47D breast = test system: T-47D breast
IGROV1 ovarian = test system: IGROV1 ovarian
HS 578T breast = test system: HS 578T breast
OVCAR-5 ovarian = test system: OVCAR-5 ovarian
SW-620 colon = test system: SW-620 colon
TK-10 renal = test system: TK-10 renal
HOP-92 NSCLC = test system: HOP-92 NSCLC
K-562 leukemia = test system: K-562 leukemia
SF-268 CNS = test system: SF-268 CNS
NCI-H23 lung = test system: NCI-H23 lung
MDA-MB-231 breast = test system: MDA-MB-231 breast
NCI-H522 lung = test system: NCI-H522 lung
HOP-62 NSCLC = test system: HOP-62 NSCLC
SR leukemia = test system: SR leukemia
HCT-116 colon = test system: HCT-116 colon
RPMI-8226 leukemia = test system: RPMI-8226 leukemia
M14 melanoma = test system: M14 melanoma
SF-295 CNS = test system: SF-295 CNS
COLO 205 colon = test system: COLO 205 colon
SF-539 CNS = test system: SF-539 CNS
RXF 393 renal = test system: RXF 393 renal
LOX IMVI melanoma = test system: LOX IMVI melanoma
NCI-H460 lung = test system: NCI-H460 lung
MOLT-4 leukemia = test system: MOLT-4 leukemia
A498 renal = test system: A498 renal
MDA-N = test system: MDA-N
UACC-257 melanoma = test system: UACC-257 melanoma
PC-3 prostate = test system: PC-3 prostate
ACHN renal = test system: ACHN renal
CAKI-1 renal = test system: CAKI-1 renal
SK-MEL-5 melanoma = test system: SK-MEL-5 melanoma
NCI-H226 lung = test system: NCI-H226 lung
CCRF-CEM leukemia = test system: CCRF-CEM leukemia
UACC-62 melanoma = test system: UACC-62 melanoma
SNB-75 CNS = test system: SNB-75 CNS
OVCAR-4 ovarian = test system: OVCAR-4 ovarian
MDA-MB-435 = test system: MDA-MB-435
SK-MEL-28 melanoma = test system: SK-MEL-28 melanoma
OVCAR-3 ovarian = test system: OVCAR-3 ovarian
HCC-2998 colon = test system: HCC-2998 colon

C/C(=N\NC(=O)c1ccncc1)c1ccccc1Cl was tested, and the TGI (HT29 colon) was greater than 100 µM, the TGI (BT-549 breast) was greater than 100 µM and the TGI (UO-31 renal) was greater than 100 µM. For the same compound, the TGI (OVCAR-8 ovarian) was greater than 100 µM, the TGI (A549 NSCLC) was greater than 100 µM and the TGI (SN12C renal) was greater than 100 µM. The TGI (EKVX NSCLC) was greater than 100 µM, the TGI (SK-MEL-2 melanoma) was greater than 100 µM and the TGI (786-0 renal) was greater than 100 µM. The TGI (NCI/ADR-RES ovarian) was greater than 100 µM, the TGI (U251 CNS) was greater than 100 µM and the TGI (HL-60(TB) leukemia) was greater than 100 µM. The TGI (MALME-3M melanoma) was greater than 100 µM, the TGI (SK-OV-3 ovarian) was greater than 100 µM and the TGI (HCT-15 colon) was greater than 100 µM. It also gave a TGI (KM12 colon) greater than 100 µM, a TGI (SNB-19 CNS) greater than 100 µM and a TGI (MCF7 breast) greater than 100 µM. It also gave a TGI (DU-145 prostate) greater than 100 µM, a TGI (T-47D breast) greater than 100 µM and a TGI (IGROV1 ovarian) greater than 100 µM. It also gave a TGI (HS 578T breast) greater than 100 µM, a TGI (OVCAR-5 ovarian) greater than 100 µM and a TGI (SW-620 colon) greater than 100 µM. For the same compound, the TGI (TK-10 renal) was greater than 100 µM, the TGI (HOP-92 NSCLC) was greater than 100 µM and the TGI (K-562 leukemia) was greater than 100 µM. The TGI (SF-268 CNS) was greater than 100 µM, the TGI (NCI-H23 lung) was greater than 100 µM and the TGI (MDA-MB-231 breast) was greater than 100 µM. The TGI (NCI-H522 lung) was greater than 100 µM, the TGI (HOP-62 NSCLC) was greater than 100 µM and the TGI (SR leukemia) was greater than 100 µM. The TGI (HCT-116 colon) was greater than 100 µM, the TGI (RPMI-8226 leukemia) was greater than 100 µM and the TGI (M14 melanoma) was greater than 100 µM. It also gave a TGI (SF-295 CNS) greater than 100 µM, a TGI (COLO 205 colon) greater than 100 µM and a TGI (SF-539 CNS) greater than 100 µM. For the same compound, the TGI (RXF 393 renal) was greater than 100 µM, the TGI (LOX IMVI melanoma) was greater than 100 µM and the TGI (NCI-H460 lung) was greater than 100 µM. For the same compound, the TGI (MOLT-4 leukemia) was greater than 100 µM, the TGI (A498 renal) was greater than 100 µM and the TGI (MDA-N) was greater than 100 µM. For the same compound, the TGI (UACC-257 melanoma) was greater than 100 µM, the TGI (PC-3 prostate) was greater than 100 µM and the TGI (ACHN renal) was greater than 100 µM. It also gave a TGI (CAKI-1 renal) greater than 100 µM, a TGI (SK-MEL-5 melanoma) greater than 100 µM and a TGI (NCI-H226 lung) greater than 100 µM. For the same compound, the TGI (CCRF-CEM leukemia) was greater than 100 µM, the TGI (UACC-62 melanoma) was greater than 100 µM and the TGI (SNB-75 CNS) was greater than 100 µM. It also gave a TGI (OVCAR-4 ovarian) greater than 100 µM, a TGI (MDA-MB-435) greater than 100 µM and a TGI (SK-MEL-28 melanoma) greater than 100 µM. For the same compound, the TGI (OVCAR-3 ovarian) was greater than 100 µM.
Compound O=C(Nc1ccccc1)c1cc(S(=O)(=O)n2cc[nH]c2=O)c(S)cc1Cl has a TGI (HT29 colon) greater than 100 µM, a TGI (BT-549 breast) greater than 100 µM and a TGI (UO-31 renal) greater than 100 µM. It also gave a TGI (OVCAR-8 ovarian) greater than 100 µM, a TGI (A549 NSCLC) greater than 100 µM and a TGI (SN12C renal) greater than 100 µM. It also gave a TGI (EKVX NSCLC) greater than 100 µM, a TGI (SK-MEL-2 melanoma) greater than 100 µM and a TGI (786-0 renal) greater than 100 µM. For the same compound, the TGI (NCI/ADR-RES ovarian) was greater than 100 µM, the TGI (U251 CNS) was greater than 100 µM and the TGI (HL-60(TB) leukemia) was greater than 100 µM. It also gave a TGI (HCT-15 colon) greater than 100 µM, a TGI (KM12 colon) greater than 100 µM and a TGI (SNB-19 CNS) greater than 100 µM. It also gave a TGI (MCF7 breast) greater than 100 µM, a TGI (DU-145 prostate) greater than 100 µM and a TGI (T-47D breast) greater than 100 µM. It also gave a TGI (HCC-2998 colon) greater than 100 µM, a TGI (IGROV1 ovarian) greater than 100 µM and a TGI (HS 578T breast) greater than 100 µM. For the same compound, the TGI (OVCAR-5 ovarian) was greater than 100 µM, the TGI (SW-620 colon) was greater than 100 µM and the TGI (TK-10 renal) was greater than 100 µM. For the same compound, the TGI (HOP-92 NSCLC) was greater than 100 µM, the TGI (K-562 leukemia) was greater than 100 µM and the TGI (SF-268 CNS) was greater than 100 µM. It also gave a TGI (NCI-H23 lung) greater than 100 µM, a TGI (MDA-MB-231 breast) greater than 100 µM and a TGI (NCI-H522 lung) greater than 100 µM. The TGI (HOP-62 NSCLC) was greater than 100 µM, the TGI (SR leukemia) was greater than 100 µM and the TGI (HCT-116 colon) was greater than 100 µM. The TGI (RPMI-8226 leukemia) was greater than 100 µM, the TGI (M14 melanoma) was greater than 100 µM and the TGI (SF-295 CNS) was greater than 100 µM. For the same compound, the TGI (COLO 205 colon) was greater than 100 µM, the TGI (SF-539 CNS) was greater than 100 µM and the TGI (RXF 393 renal) was greater than 100 µM. The TGI (LOX IMVI melanoma) was greater than 100 µM, the TGI (NCI-H460 lung) was greater than 100 µM and the TGI (MOLT-4 leukemia) was greater than 100 µM. The TGI (A498 renal) was greater than 100 µM, the TGI (MDA-N) was greater than 100 µM and the TGI (UACC-257 melanoma) was greater than 100 µM. It also gave a TGI (PC-3 prostate) greater than 100 µM, a TGI (ACHN renal) greater than 100 µM and a TGI (CAKI-1 renal) greater than 100 µM. The TGI (SK-MEL-5 melanoma) was greater than 100 µM, the TGI (NCI-H226 lung) was greater than 100 µM and the TGI (CCRF-CEM leukemia) was greater than 100 µM. For the same compound, the TGI (UACC-62 melanoma) was greater than 100 µM, the TGI (SNB-75 CNS) was 97.5 µM and the TGI (MDA-MB-435) was greater than 100 µM. For the same compound, the TGI (SK-MEL-28 melanoma) was greater than 100 µM and the TGI (OVCAR-3 ovarian) was greater than 100 µM.
Compound OCCCNCc1ccncc1 has a TGI (HT29 colon) greater than 100 µM, a TGI (BT-549 breast) greater than 100 µM and a TGI (UO-31 renal) greater than 100 µM. It also gave a TGI (OVCAR-8 ovarian) greater than 100 µM, a TGI (A549 NSCLC) greater than 100 µM and a TGI (SN12C renal) greater than 100 µM. The TGI (EKVX NSCLC) was greater than 100 µM, the TGI (SK-MEL-2 melanoma) was greater than 100 µM and the TGI (786-0 renal) was greater than 100 µM. The TGI (NCI/ADR-RES ovarian) was greater than 100 µM, the TGI (U251 CNS) was greater than 100 µM and the TGI (HL-60(TB) leukemia) was greater than 100 µM. The TGI (MALME-3M melanoma) was greater than 100 µM, the TGI (SK-OV-3 ovarian) was greater than 100 µM and the TGI (HCT-15 colon) was greater than 100 µM. It also gave a TGI (KM12 colon) greater than 100 µM, a TGI (SNB-19 CNS) greater than 100 µM and a TGI (MCF7 breast) greater than 100 µM. It also gave a TGI (DU-145 prostate) greater than 100 µM, a TGI (T-47D breast) greater than 100 µM and a TGI (IGROV1 ovarian) greater than 100 µM. For the same compound, the TGI (HS 578T breast) was greater than 100 µM, the TGI (OVCAR-5 ovarian) was greater than 100 µM and the TGI (SW-620 colon) was greater than 100 µM. It also gave a TGI (TK-10 renal) greater than 100 µM, a TGI (HOP-92 NSCLC) greater than 100 µM and a TGI (K-562 leukemia) greater than 100 µM. It also gave a TGI (SF-268 CNS) greater than 100 µM, a TGI (NCI-H23 lung) greater than 100 µM and a TGI (MDA-MB-231 breast) greater than 100 µM. It also gave a TGI (NCI-H522 lung) greater than 100 µM, a TGI (HOP-62 NSCLC) greater than 100 µM and a TGI (SR leukemia) greater than 100 µM. The TGI (HCT-116 colon) was greater than 100 µM, the TGI (RPMI-8226 leukemia) was greater than 100 µM and the TGI (M14 melanoma) was greater than 100 µM. It also gave a TGI (SF-295 CNS) greater than 100 µM, a TGI (COLO 205 colon) greater than 100 µM and a TGI (SF-539 CNS) greater than 100 µM. For the same compound, the TGI (RXF 393 renal) was greater than 100 µM, the TGI (LOX IMVI melanoma) was greater than 100 µM and the TGI (NCI-H460 lung) was greater than 100 µM. For the same compound, the TGI (MOLT-4 leukemia) was greater than 100 µM, the TGI (A498 renal) was greater than 100 µM and the TGI (MDA-N) was greater than 100 µM. The TGI (PC-3 prostate) was greater than 100 µM, the TGI (ACHN renal) was greater than 100 µM and the TGI (CAKI-1 renal) was greater than 100 µM. The TGI (SK-MEL-5 melanoma) was greater than 100 µM, the TGI (NCI-H226 lung) was greater than 100 µM and the TGI (CCRF-CEM leukemia) was greater than 100 µM. The TGI (UACC-62 melanoma) was greater than 100 µM, the TGI (SNB-75 CNS) was greater than 100 µM and the TGI (OVCAR-4 ovarian) was greater than 100 µM. For the same compound, the TGI (MDA-MB-435) was greater than 100 µM, the TGI (SK-MEL-28 melanoma) was greater than 100 µM and the TGI (OVCAR-3 ovarian) was greater than 100 µM.
